Measurements from a melting point compilation (Tetko et al.; mined from patent text by program, amines drawn as free bases though some values may be those of a salt).

Row | Compound | melting point [°C]
1 | CC(C)(C)NC(=O)[C@@H]1CCCN1C(=O)[C@@H](O)[C@H](Cc1ccccc1)N(Cc1ccccc1)Cc1ccccc1 | 122 to 123
2 | O=C(O)C(O)COc1ccc(Cl)cc1 (stereo unspecified) | 135 to 136
3 | CCOC(=O)C(=O)Nc1ccccn1 | 73 to 75
4 | COc1cccc(NC(=O)NC2CN(C3CCCCC3)c3ccccc3N(CC(=O)C(C)(C)C)C2=O)c1 (stereo unspecified) | 234 to 235
5 | O=C(CCC1CCC(=O)O1)NCCc1ccccc1 (stereo unspecified) | 86 to 87
6 | O=C(Nc1ccccc1C(=O)c1ccc(OC(F)(F)F)cc1)c1ccncc1 | 112 to 114
7 | Cc1cc(C)cc(Sc2c(CN3CCOCC3)c(C)[nH]c(=O)c2I)c1 | 230
8 | CN(C(=O)c1nn(-c2ccc(Cl)cc2Cl)c(-c2ccc(Cl)cc2)c1F)N1CCCCC1 | 184
9 | CS(=O)(=O)N1C[C@H](S)C[C@H]1COc1ccccc1 | 78 to 79
10 | CC(C)(Oc1ccc(CCC(=O)c2ccc(-c3ccc(OC(F)(F)F)cc3)s2)c(Cl)c1Cl)C(=O)O | 135 to 136
11 | CC(=O)NC[C@H]1CN(c2ccc(N3CCC(O)(CN=[N+]=[N-])CC3)cc2)C(=O)O1 | 134 to 136
12 | CCC1Oc2cc(C(=O)OC)ccc2NC1=O (stereo unspecified) | 132 to 134
13 | CS(=O)(=O)c1ccc(-n2cc(-c3cccc(F)c3)nc2-c2ccc(Cl)cc2)cc1 | 194 to 196
14 | CC(C)(Oc1ccc(C(=O)c2ccc(Cl)cc2)cc1)C(=O)Oc1ccc(I)cc1 | 149 to 150
15 | C#CC(O)(C(Oc1ccc(F)cc1)n1cncn1)C(C)(C)C (stereo unspecified) | 134 to 135
16 | CCOC(=O)C1C(=O)CC(C)(O)C(C(=O)OCC)C1c1cc(C)c2oc(C)c(C)c2c1 (stereo unspecified) | 168 to 171
17 | CCCCCP(=S)(CCCCC)NP(=S)(CCCCC)CCCCC | 59 to 63.5
18 | COC(=O)Nc1cccc(OCC(O)CN(Cc2ccccc2)C(C)(C)C)c1O (stereo unspecified) | 130 to 133
19 | COc1cccc2c(CCCNC3COc4c(F)ccc(C(N)=O)c4C3)c[nH]c12 (stereo unspecified) | 196 to 198
20 | COC(=O)c1ncc(OS(=O)(=O)c2ccc(C)cc2)c2c1[nH]c1ccccc12 | 230 to 231
21 | COc1cccc(OC(=O)NC2C(=O)N(CCC(C)C)c3cc(Cl)c(Cl)cc3N(c3ccccc3)C2=O)c1 (stereo unspecified) | 139 to 140

Row | Compound | melting point [°C]
22 | CC(C)(C)c1ccc(C2C=C(c3ccc(C#C[Si](C)(C)C)cc3)NN2c2ccccc2)cc1 (stereo unspecified) | 160 to 162
23 | O=C(c1ccc(F)c(Cl)c1)N1CCC(F)(CNCc2ccc(CF)cn2)CC1 | 157 to 159
24 | CCCCCCCCCCCC(=O)OC(OC(=O)N1CCN(c2cc3c(cc2F)c(=O)c(C(=O)O)cn3CC)CC1)C(=O)OC(C)C (stereo unspecified) | 106 to 109
25 | COc1cccc(-c2c(Cl)c(CN3CCCCC3)nc3sc4c(c23)CCN(Cc2ccccc2)C4)c1OC | 173 to 174
26 | COCC1CN(c2ccc(C3CC4C=CC3C4)cc2)C(=O)O1 (racemic) | 46 to 48
27 | CC1(C)CC(CN2CCCNC2=N[N+](=O)[O-])CO1 (stereo unspecified) | 109 to 110
28 | C(C#Cc1c2ccccc2cc2ccccc12)#Cc1c2ccccc2cc2ccccc12 | 280 to 282
29 | O=C(O)c1ccc(OS(=O)(=O)C(F)(F)F)cc1 | 178 to 180
30 | O=C(O)COc1c(Br)cc(-c2c3ccccc3c(Br)c3oc4ccccc4c23)cc1Br | 250 to 252
31 | Brc1ccc(C2CC(n3ccnc3)c3ccccc3N2)cc1 (stereo unspecified) | 142 to 144
32 | O=C1CCC(c2ccccc2Cl)=NN1 | 114 to 116
33 | COc1cc(Nc2c(C#N)cnc3cc(-c4ccc(CNCCS(C)(=O)=O)o4)ccc23)c(Cl)cc1Cl | 171 to 174
34 | CCCNC(=O)COC1C(O)C(CO)OC(Oc2ccc(N)cc2)C1O (stereo unspecified) | 154
35 | O=c1oc(Nc2ccc(Oc3ccccc3)cc2)nc2sccc12 | 206 to 210
36 | O=C(O)CN=C(O)c1ccc(C(O)=NCC(=O)O)c2c(C(=O)O)ccc(C(=O)O)c12 | > 300
37 | CC(=O)Oc1ccc(-c2cc(=O)c3cc(Br)cc([N+](=O)[O-])c3o2)cc1F | 236 to 238
38 | CC#CCOc1ccc(S(=O)(=O)C(C(=O)NO)C2CCN(C(C)=O)CC2)cc1 (stereo unspecified) | 103
39 | CC(C)(C)OC(=O)N1CCc2c(n(CCOc3ccc(F)cc3)c3ccc(Cl)c(Cl)c23)CC1 | 164 to 166
40 | C=CC(=O)Nc1ccc(C(=O)C[N+](=O)[O-])c(Cl)c1 | 140 to 144
41 | COc1ccc(N2CCN(c3c(C)c(C=O)c4c(c3C)C(c3ccc(C)cc3)C(C)(C)O4)CC2)cc1 (stereo unspecified) | 175 to 177

Other lines, results leading:

Row | melting point [°C] | Compound
42 | 122 to 124 | COc1ccc2c(c1)N(CCCCl)c1cccc(S(C)(=O)=O)c1S2
43 | 186 | COc1cc2c(cc1OC)C1c3ccccc3CCN1C2 (stereo unspecified)
44 | 56 to 66 | CCOC(=O)COc1cccc2c1OCCC2=O
45 | 157 to 161 | O=C(Cc1cccc([N+](=O)[O-])c1)c1c(O)c2cccnc2n(-c2ccccc2)c1=O
46 | 136 to 137 | O=c1nc(-c2ccccn2)sc2ccc(OCCCCCCO)cc12
47 | 156 | CC(C)C1(C)N=C(c2ncc(C3OCCO3)cc2C(=O)O)NC1=O (stereo unspecified)
48 | 127 to 128 | CCC(=O)N1Cc2cnn(C)c2-c2cc(Cl)ccc21
49 | 65 to 68 | OCCSSc1nc2ccccc2s1
50 | 217 to 218 | Cc1cc(C(=O)O)ccc1Sc1cc2c(cc1C)C(C)(C)CCC2(C)C
51 | 79.5 to 81 | Cc1ccnc(N)c1C
52 | 199 to 200 | Cc1ccc2oc(-c3ccccc3-c3nnnn3C(c3ccccc3)(c3ccccc3)c3ccccc3)c(Br)c2c1
53 | 222 to 226 | CC(C)Cn1cnc2c(N)nc3c(c21)NCCC3
54 | 92 to 95 | COc1nc2cc(Cl)ccc2nc1Cl
55 | 113 to 114 | COc1cc(O)c(C(=O)CCc2ccc3occc3c2)cc1C(O)C1OC(C(=O)C(C)C(=O)O)C(O)C(O)C1O (stereo unspecified)
56 | 181 to 183 | CCOCc1nc2ncc(C)nc2c(=O)[nH]1
57 | 52 to 54 | CN(C)CCSc1ccc2nccn2n1
58 | 123 | Cc1cc(Cl)cc(C(=O)Nc2cccc(F)c2)n1
59 | 160 | CC(C)C(=O)c1ccc(F)cc1O
60 | 147 to 148 | N#Cc1ccc(Cl)c(N=Cc2ccccc2O)c1
61 | 144 | CC(C)(Oc1cccc(C(=O)c2ccc(Cl)cc2)c1)C(=O)O

Row | melting point [°C] | Compound
62 | 254 to 256 | CCOC(=O)c1cn(CCCl)c2cc(-n3cccc3)c(F)cc2c1=O
63 | 135 to 136 | Cc1cc(C)n(C(=O)CNS(=O)(=O)c2ccc(Cl)cc2)n1
64 | 110 to 112 | Nc1nc(Cl)cc(NCCCCO)n1
65 | 96 to 97 | C1=C(c2nc(COc3ccc(CCCCn4cncn4)cc3)co2)CCc2ccccc21
66 | > 260 | COC(=O)c1cccn1-c1cc2[nH]c(=O)c(=O)[nH]c2cc1Cl
67 | 205 | Cc1cn(C)c(C(=O)O)c1-c1ccccc1[N+](=O)[O-]
68 | 101 to 104 | CC(=O)N1N=C(c2ccncc2)OC1c1ccc(Cl)c(Cl)c1 (stereo unspecified)
69 | 92 to 96 | CC(=O)OC(Cn1cncn1)c1ccc(Cl)cc1Cl (stereo unspecified)
70 | 137 | CC(C(=O)O)c1ccc(C(=O)c2ccc(Cl)s2)cc1 (stereo unspecified)
71 | 127 to 130 | CN1C(=O)CCCc2ccc(Nc3ncc(Cl)c(N[C@@H]4CCCC[C@H]4NS(C)(=O)=O)n3)cc21
72 | 59 to 61 | FC(F)(F)c1ccn(-c2cccnc2)n1
73 | 97 to 99 | CCCc1c(OCCCSc2nnc(SCC(=O)N(C)O)s2)ccc(C(C)=O)c1O
74 | 178 to 182 | O=C(O)c1cccc(OCc2ccc3ccccc3n2)c1
75 | 60 to 85 | COc1ccc(CNc2nc(NCc3ccc(OC)cc3)c3[nH]nc(C(C)C)c3n2)cc1
76 | 102 to 105 | COc1ccc(Sc2ccccc2CC(=O)O)cc1
77 | 113 to 114 | FC(F)(F)c1nc2cnc3ccccc3c2s1
78 | 135 to 137 | C#Cc1cc(C(=O)NC(C)CCCc2cccnc2)ccc1-c1ccc(OC)c(OC)c1 (stereo unspecified)
79 | > 300 | Cn1nnc2ccc3nc(O)c(O)nc3c21
80 | 111 to 113 | C=CCc1cc(C(=O)c2ccnn2C)c(Cl)c(Cl)c1OCC(=O)O
81 | 205 to 206 | CC1(C)CC(c2ccccc2)Nc2c(C(=O)O)cnn21 (single isomer, unassigned; (-))

Row | melting point [°C] | Compound
82 | 89 to 90 | COC(=O)c1cc(-c2nc(CCl)c(C)o2)ccc1C
83 | 195 to 196 | Cc1cccnc1C(=O)c1[nH]c2cc(Cl)ccc2c1CC(=O)O
84 | 146 to 147 | CC(=O)Nc1c(C#N)cnn1-c1ccc(C)cc1Cl
85 | 185 to 187 | Nc1nnc(-c2ccccc2Nc2cccc(C(F)(F)F)c2)o1
86 | 133 to 136 | CCOC(=O)C(=O)Nc1cccc(N)c1C#N
87 | 78 to 81 | CCSC1=C(c2ccc(O)cc2)C(=O)c2cc(O)ccc21
88 | 157 to 158 | Nc1nc2c(s1)CCN(CCC=Cc1ccccc1)CC2
89 | 128 to 130 | CCN1CCc2nc(N3CCN(Cc4ccccc4)CC3)ncc2C1=O
90 | 163 | Cn1ncnc1COc1nn2c(-c3c(F)cccc3F)nncc2c1-c1ccccc1F
91 | 180 to 183 | Cc1cc2cc(CN3CCCC3)cnc2cc1NC(=O)c1ccc(-c2ccccc2)cc1F
92 | 203 | CC(=O)Oc1ccc(-c2cc3ccccc3[nH]2)cc1
93 | 163 to 165 | Cn1cc(C=O)c2ccc3oc4ccccc4c3c21
94 | 55 to 58 | CCOC(=O)c1ccc(CSc2nnc(C)s2)cc1
95 | 129 to 131 | CCOc1nn(CCOc2c(CC)cccc2CC(=O)O)cc1C(=O)NCc1ccc(Cl)cc1Cl
96 | 221 to 223 | COc1cccc(Cc2cnc(N)nc2N)c1
97 | 91 to 93 | Cc1nc(O)sc1CC(C)Cl (stereo unspecified)
98 | 194 to 197 | O=C1CC(c2csc(-n3ccnc3)n2)=Nc2ccc(-c3ccccc3F)cc2N1
99 | 218 to 221 | Fc1cccc(Cn2ncc3cc(Nc4ncnc5cnc(F)cc45)ccc32)c1
100 | 168 to 170 | CCCCc1nc2c(N)nc3ccccc3c2n1CCOc1ccccc1
101 | 118 to 119 | O=C(Nc1ccc2c(c1)C(=O)C1(CC1)O2)OCc1ccccc1
